Test [1] deals with H9c2. Kind of test: cells. Format: functional, cell-based. Particulars: Rattus norvegicus, H9c2, Myocardium.
Test [2] has as its system SN12K1. Kind of test: cells. Format: functional.
The subject of test [3] is P388/ADR. Kind of test: cells. Particulars: Mus musculus. In kind it is functional.
The subject of test [4] is P388. Put plainly: cells. Format: functional.
Test [5] is described as follows: control 3'UTR Renilla luciferase suppression, dose response, counter-screen for Shn3 inhibitor project, cell-based, Clone20-Shn3RL, cherry-picked (AID 624133). Format: functional. On the technique in general: The purpose of a counterscreen is to sort out artefacts and off-target activity.
The nature of test [6]: HepG2 cell cytotoxicity, dose response, cytotoxicity control for Shn3 inhibitor project, CellTiter-Glo, cherry-picked (AID 624134). In kind it is functional, cell-based. In general terms: Cellular ATP, detected with luciferase, serves as a proxy for viable cell number.
A short description of test [7]: Shn3 3'UTR reporter inhibitors, dose response, cell-based, Clone20 osteoblasts, firefly luciferase, cherry-picked (AID 624132).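 Also: firefly luciferase luminescence from reporter carrying the Shn3 3'UTR in osteoblasts.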 In kind it is functional.
Test [8] can be described thus: cells. In kind it is functional.
Test [9] in a line: C. albicans growth with fluconazole, confirmation, fluorescence, retest (AID 2467). In kind it is functional, cell-based.
Test [10] has as its target FAD-linked sulfhydryl oxidase ALR (Homo sapiens, UniProt P55789). Kind of test: inhibitors of human ALR sulfhydryl oxidase, dose response, biochemical, H2O2 detection, luminescence, cherry-pick (AID 493248).
Test [11] can be described thus: HEp-2 cell cytotoxicity, dose response, cytotoxicity control for RSV inhibitor project, HTS (AID 2410). Format: functional. Particulars: human respiratory syncytial virus.
Test [12] in a line: Luminescence Cell-Based Dose Retest to Confirm Inhibitors of Cancer Stem Cells. [Related pubchem assays (depositor defined):AID2717, AID2721]. Format: functional. Particulars: Homo sapiens.
Test [13] in a line: inhibitors of firefly luciferase expression or activity, dose response, H4 neuroglioma cells, luminescence (AID 1990). In kind it is functional, cell-based.
Test [14] in a line: inhibitors of SNCA 5'UTR-driven reporter translation, confirmation, H4 neuroglioma cells, luminescence (AID 1988). Format: functional, cell-based.
A short description of test [15]: Luminescence Cell-Based Dose Response HTS to Identify Inhibitors of 5'UTR Stem-Loop Driven Prion Protein mRNA Translation in H4 Neuroglioblastoma Cells. [Related pubchem assays: 1827 (Project Summary), 1813 (Primary HTS)]. Format: functional.
The test system of test [16] is INS1. Kind of test: beta cell apoptosis inhibitors, cytokine rescue, dose response, luminescence, retest (AID 449756).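 Also: cell death triggered by IL-1 beta plus TNF-alpha plus IFN-gamma mixture; protective hits raise ATP signal compared with cytokine alone wells.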 Format: functional, cell-based. To be noted: Rattus norvegicus.
Test [17] is described as follows: microbe, parasite or virus in culture. Format: functional. Particulars: Mycobacterium tuberculosis.

Molecules are shown by their SMILES. Calls of active or inactive are those of the source. Bounds are passed on as bounds.

FAD-linked sulfhydryl oxidase ALR, sequence (P55789 whole entry): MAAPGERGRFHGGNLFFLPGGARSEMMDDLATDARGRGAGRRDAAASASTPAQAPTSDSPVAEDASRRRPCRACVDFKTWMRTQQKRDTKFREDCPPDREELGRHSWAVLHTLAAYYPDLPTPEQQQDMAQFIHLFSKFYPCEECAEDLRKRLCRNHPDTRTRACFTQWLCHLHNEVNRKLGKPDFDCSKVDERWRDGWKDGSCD

What is called IC50 is the point on the concentration scale where inhibition reaches its midpoint. Take `COc1cccc(C(c2nnnn2Cc2ccccc2)N2CCN(C3CCCC3)CC2)c1OC` (stereo unspecified): the IC50 in [1] was > 79 µM (inactive).
For `COc1ccc(C(=O)Nc2nc(-c3ccccn3)cs2)cc1S(=O)(=O)N1CCOCC1`, in [1], the IC50 is 10.9 µM (active).
By GI50 is commonly meant the concentration giving 50% growth inhibition. Take `CSc1nc(NC2OC(CO)C(O)C(O)C2O)c(N)c(=O)n1C` (stereo unspecified): the GI50 was > 100 µM (inactive) in test [2] (Homo sapiens, SN12K1); > 100 µM (inactive) in test [3]; > 100 µM (inactive) in [4] (Mus musculus, P388).
In general, AC50 refers to the concentration giving half of the maximal activity seen. Take `O=C(Nc1nc(-c2ccccn2)cs1)c1cccc(S(=O)(=O)N2CCOCC2)c1`: the concentration at half-maximal activity (AC50) in test [5] was 2.89 µM (active); in test [6], 5.28 µM (active); in [7] it was 1.52 µM (active). The IC50 in test [1] was 21 µM (active).
On to `COc1cccc(CN(C)C(=O)c2cccc(S(=O)(=O)N3CCN(Cc4ccccc4)CC3)c2)c1OC`, for which the AC50 in [5] is 8.32 µM (active); in test [6] it was 63.3 µM (active); in test [7], 4.94 µM (active).
By EC50 is commonly meant the midpoint of the concentration-response curve. For the compound `O=C(COc1ccccc1)Nc1nnc(-c2ccc3c(c2)CCCC3)o1`, the IC50 in [8] was 10.3 µM (active). The EC50 in test [9] was 0.499 µM (active).
Consider `O=C(NCCCCCCNC(=O)n1cc(F)c(=O)[nH]c1=O)NCCCOCCOCCOCCOCCOCCOCCOCCOCCOCCOCCOCCOCCOCCOCCOCCOCCOCCOCCOCCOCCOCCCNC(=O)C(O)C(O)C(OC1OC(CO)C(O)C(O)C1O)C(O)CO` (stereo unspecified), for which the GI50 in [2] (Homo sapiens, SN12K1) was 6.46 µM (inactive); in [3], 0.43 µM (active); in test [4] (Mus musculus, P388), 0.566 µM (active).
For the compound `NC(=O)c1ccc(CSc2nc3ccccc3s2)cc1`, the AC50 in test [10] is 0.73 µM (active).
On to `S=C(Nc1ccccc1Cl)N1CCCC(c2ccccc2)=N1`, for which, in test [11], the CC50 was 25.1 µM (active). In test [12], the AC50 was 4.35 µM (active).
Turning to `C[n+]1ccc(Nc2ccc(NC(=O)c3ccc(Nc4cc[n+](C)c5ccc([N+](=O)[O-])cc45)cc3[N+](=O)[O-])cc2)cc1`, the GI50 in test [2] is 23.4 µM (inactive); in test [4], 0.617 µM (active).
With `C=CCn1c(SCc2c(C)noc2C)nc2sc3c(c2c1=O)CCCCC3`, the AC50 in test [12] is 0.856 µM (active). Further, the EC50 in test [13] was 14.7 µM (active); in [14] it was 15.1 µM (active); in test [15], 14.8 µM (active).
Take `COc1cc(O)c(Cc2ccccc2O)c(O)c1C(=O)CCc1ccccc1` [UVARETIN]: the GI50 is 5.55 µM (inactive) in test [2] (Homo sapiens, SN12K1); 5.38 µM (inactive) in test [3]; 4.37 µM (inactive) in [4] (Mus musculus, P388).
For `Clc1cccc(CNCCNCc2cccc(Cl)c2)c1`, the IC50 in test [8] was 20.5 µM (active).
With `COc1cccc2c1C(=N)c1c(O)c3c(c(O)c1C2=O)C[C@@](O)(C(C)=O)C[C@@H]3OC1CC(N)C(O)C(C)O1` (stereo partly specified), the GI50 was 0.124 µM (active) in test [2] (Homo sapiens, SN12K1); 0.000673 µM (active) in test [3]; 0.000159 µM (active) in test [4] (Mus musculus, P388).
For `CC(C)NC(=O)COC(=O)Cn1[nH]c(=O)c2ccccc2c1=O`, in test [1], the IC50 was 16.4 µM (active).
On the same count and under the same terms, the figure for `CC1Cc2ccccc2N1C(=O)COC(=O)c1nnc(O)c2ccccc12` (stereo unspecified) is > 79 µM (inactive).
As to `C=C1CC(OC)(C(OC)C(=O)N(C)[C@H]2OCO[C@H]3C2O[C@H](C[C@@H](COC)OC)C(C)(C)C3OC)O[C@H](C)[C@@H]1C` (stereo partly specified), the GI50 in test [2] (Homo sapiens, SN12K1) is 10.9 µM (inactive); in [3], 5.58 µM (inactive); in [4] (Mus musculus, P388), 3.58 µM (inactive).
Take `c1ccc(CNc2ccc3c(c2)ncn3C2CCCCC2)nc1`: the AC50 in test [10] is 1.2 µM (active).
As for `Sc1nnc(-c2ccc3ccccc3n2)o1`, the half-maximal activity concentration (AC50) in test [10] is 0.01 µM (active).
For the compound `CC1Cc2ccccc2C(=O)N1` (stereo unspecified), in test [1], the half-inhibitory concentration (IC50) was 12.5 µM (active).
With `O=C(COc1cccc2c1CCNC2=O)NC1CCCCC1`, the IC50 in [1] is > 79 µM (inactive).
As to `O=S(=O)(c1ccc2ccccc2c1)N1CCN=C1SCc1cccnc1`, the AC50 in [10] was 0.072 µM (active).
The same measure, in the same setting: the value for `Cc1nn(-c2ccccc2)c(C)c1-c1cc(C(=O)N/N=C/c2ccc(O)cc2)[nH]n1` was 4.12 µM (active).
On to `COc1ccc(OC)c(/C=N/NC(=O)c2cc3c(OC)c(OC)ccc3[nH]2)c1`, for which the IC50 in test [1] was > 79 µM (inactive).
Still for that read-out and setting: the value for `Cc1c(/C=N/NC(=O)c2ccc(O)cc2)c2ccccn2c1C(=O)c1ccc(F)cc1` was > 79 µM (inactive).
On to `COc1cc(NC(=O)C(c2ccccc2)c2ccccc2)c(C(=O)O)cc1OC`, for which, in test [10], the AC50 is 10.2 µM (active).
Regarding `CCOC(=O)C(C)Oc1ccc(OCc2ccccc2)cc1` (stereo unspecified), the IC50 in [8] was 6.32 µM (active).
With `COc1ccc(CNCCC(c2ccc(OC(C)C)cc2)c2ccccc2OC)cc1` (stereo unspecified), the AC50 is 5.81 µM (active) in test [12]; 20.9 µM (active) in test [5]; 13.3 µM (active) in test [6]; 7.26 µM (active) in test [16]; 3.86 µM (active) in test [7]. Further, the EC50 is 11.4 µM (active) in test [13], 8.9 µM (active) in test [14] and 113 µM (active) in test [15].
With `O=C(N/N=C/C(Br)=C/c1ccccc1)c1cnccn1`, the concentration for half-maximal inhibition (IC50) in test [8] was 31.1 µM (active).
In the case of `Cc1ccc(CNc2nc(NCC3CC3)nc3ccsc23)c(C)c1`, the results for the half-maximal activity concentration (AC50) in [5], in test [6] and in test [7] were 6.26 µM (active), 40.4 µM (active) and 3.95 µM (active), respectively.
For `CC(=O)C(=O)NC1/C=C(C)\C=C/C(O)C/C=C(C)\C=C/C(O)CC2OC(=O)C1(C)C(=O)C2C` (stereo unspecified), the GI50 in test [2] (Homo sapiens, SN12K1) is > 100 µM (inactive); in test [3], 28.4 µM (inactive); in [4] (Mus musculus, P388), 10.4 µM (inactive).
Take `CC1(C)CC2C1CCC1(O)CC2(C)CCC1N(O)c1ccc(C(=O)NCCO)cn1` (stereo unspecified): in [1], the IC50 was > 79 µM (inactive).
In the case of `COc1ccc(-c2c(C#N)c(SCC(=O)c3cc4ccccc4oc3=O)nc(C)c2C(=O)Nc2ccccc2)cc1`, in test [12], the AC50 is 0.738 µM (active). In addition, in [17], the CC50 is 5.32 µM (active).
`COc1ccc(OC(=O)CCc2c[nH]c3ccccc23)cc1`: in test [8], the half-inhibitory concentration (IC50) was 0.48 µM (active).
Consider `O=S(=O)(CCBr)CCBr`, for which the GI50 was 6.59 µM (inactive) in test [2] (Homo sapiens, SN12K1); 2.84 µM (inactive) in test [3]; 2.13 µM (inactive) in [4] (Mus musculus, P388).
For `CC(C)Oc1ccc(S(=O)(=O)N2CCCCC2)cc1NC(=O)CN1CCCC1c1cccs1` (stereo unspecified), the half-maximal activity concentration (AC50) is 20.6 µM (active) in test [5], > 70 µM (inactive) in test [6], 5.76 µM (active) in test [16] and 7.88 µM (active) in test [7].
For `CCN(CC)CCCOC(=O)/C=C/c1c(C)[nH]c(=O)[nH]c1=O`, the GI50 in [2] (Homo sapiens, SN12K1) was > 625 µM (inactive); in test [3] it was 426 µM (inactive); in test [4] (Mus musculus, P388) it was > 625 µM (inactive).
`O=C(COc1cccc(F)c1)Nc1nc(-c2ccccn2)cs1`: the IC50 in test [1] was > 79 µM (inactive).
For the compound `CC(C)[C@](O)(C(=O)OCC1=CC[N+]2([O-])CC[C@@H](O)[C@@H]12)[C@H](C)O` (stereo partly specified) [INDICINE N-OXIDE], the GI50 in [2] (Homo sapiens, SN12K1) was > 10000 µM (inactive); in [3], > 8990 µM (inactive); in test [4] (Mus musculus, P388), 6490 µM (inactive).

These data come from ChEMBL document CHEMBL1201862, “PubChem BioAssay data set” (2004).
